Where two headings read alike, the source gives them in different places.

Assay [1] has as its system PC-9 cells. Briefly: PC9 proliferation assay. The settings on record: read-out: PC9 Prolif IC50 (G12V). In kind it is cell-based, human.
The target of assay [2] is KRas (Homo sapiens (Human), UniProt P01116). In words: KRas GDP HTRF (BODIPY-GDP exchange TR-FRET). Type of assay: biochemical. A digest of the protocol:
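Inhibition of SOS1-mediated exchange of BODIPY-GDP on KRAS G12D, started with 3 nM recombinant human SOS1 and 300 nM BODIPY-GDP and read after 60 min. TR-FRET excitation 337 nm, ratio 520/490 nm ×10,000. IC50 from 4-parameter Hill fit of normalized data.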
(Time-resolved FRET reads energy transfer from a long-lived donor to a nearby acceptor.)

For assay [3], the target named is KRas(G12V) (Homo sapiens (Human), UniProt P01116, G12V). Briefly: KRas(G12V) GDP HTRF (BODIPY-GDP exchange TR-FRET). In kind it is biochemical.
KRas(G12V), sequence (P01116-2 other isoform, or with tags, fused parts or gaps G12V): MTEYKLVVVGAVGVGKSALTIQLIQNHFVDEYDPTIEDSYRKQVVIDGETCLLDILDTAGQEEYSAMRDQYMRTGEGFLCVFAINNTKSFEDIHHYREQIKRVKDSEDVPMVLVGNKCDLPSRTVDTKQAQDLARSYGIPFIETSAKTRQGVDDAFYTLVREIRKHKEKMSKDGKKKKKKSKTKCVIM
Assay [4] deals with SW480 cells. In words: SW480 proliferation assay. In kind it is cell-based. The settings on record: read-out: SW480 Prolif IC50 (G12V).

KRas, sequence (P01116-2 other isoform, or with tags, fused parts or gaps): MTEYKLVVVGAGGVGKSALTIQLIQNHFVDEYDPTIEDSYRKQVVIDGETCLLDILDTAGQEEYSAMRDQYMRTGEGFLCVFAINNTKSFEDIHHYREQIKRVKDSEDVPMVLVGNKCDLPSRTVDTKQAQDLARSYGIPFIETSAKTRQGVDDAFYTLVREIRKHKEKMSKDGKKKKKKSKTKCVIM

Take `C=C1CN2CCC[C@@]2(COc2nc3c4c(c(Cl)c(-c5cc(O)cc6ccccc56)cc4n2)OCCN3C)C1` [Example 59, (S)-4-(8-chloro-4-methyl-2-((2-methylenetetrahydro-1H-pyrrolizin-7a(5H)-yl)methoxy)-5,6-dihydro-4H-[1,4]oxazepino[5,6,7-de]quinazolin-9-yl)naphthalen-2-ol]: the IC50 – broadly, the midpoint of a concentration-inhibition curve – in assay [1] (Homo sapiens, PC-9, PC9) worked out at 5800 nM; in assay [2], 270 nM; in assay [3], 57 nM; in assay [4] (Homo sapiens, SW480, SW480) it was 7100 nM.

Take `Cc1cc(N)nc(-c2c(Cl)c3c4c(nc(OCCO)nc4c2F)N([C@H](C)c2cccnc2N)CCO3)c1C(F)(F)F` (atropisomer, axis not shown) [Example 156, 2-(((R)-9-(6-amino-4-methyl-3-(trifluoromethyl)pyridin-2-yl)-4-((R)-1-(2-aminopyridin-3-yl)ethyl)-8-chloro-10-fluoro-5,6-dihydro-4H-[1,4]oxazepino[5,6,7-de]quinazolin-2-yl)oxy)ethan-1-ol]: the IC50 in assay [1] (Homo sapiens, PC-9, PC9) stood at 16000 nM; in assay [2] it was 0.65 nM; in assay [3] it was 0.19 nM; in assay [4] (Homo sapiens, SW480, SW480) it was 310 nM.

Turning to `Cc1cc(N)nc(-c2c(Cl)c3c4c(nc(OC[C@@H]5CC[C@H]6COCCN65)nc4c2F)N([C@H](C)c2cncnc2N)CCO3)c1C(F)(F)F` (atropisomer, axis not shown; (aS)) [Example 102a, 5-((R)-1-((R)-9-(6-amino-4-methyl-3-(trifluoromethyl)pyridin-2-yl)-8-chloro-10-fluoro-2-(((6S,8aS)-hexahydro-1H-pyrrolo[2,1-c][1,4]oxazin-6-yl)methoxy)-5,6-dihydro-4H-[1,4]oxazepino[5,6,7-de]quinazolin-4-yl)ethyl)pyrimidin-4-amine], the IC50 in assay [1] (Homo sapiens, PC-9, PC9) was 2200 nM; in assay [2], 0.115 nM; in assay [3], 0.094 nM; in assay [4] (Homo sapiens, SW480, SW480) it was 19 nM.

With `Cc1cc(N)nc(-c2c(Cl)c3c4c(nc(OC[C@@H]5C[C@@H](F)CN5C)nc4c2F)N([C@@H]2CCCc4ccnc(N)c42)CCO3)c1C(F)(F)F` (atropisomer, axis not shown) [Example 132, (R)-8-((R)-9-(6-amino-4-methyl-3-(trifluoromethyl)pyridin-2-yl)-8-chloro-10-fluoro-2-(((2S,4R)-4-fluoro-1-methylpyrrolidin-2-yl)methoxy)-5,6-dihydro-4H-[1,4]oxazepino[5,6,7-de]quinazolin-4-yl)-5,6,7,8-tetrahydroisoquinolin-1-amine], the half-maximal inhibitory concentration (IC50) was 3200 nM in assay [1] (Homo sapiens, PC-9, PC9); 0.273 nM in assay [2]; 0.13 nM in assay [3]; 39 nM in assay [4] (Homo sapiens, SW480, SW480).

For the compound `Cc1cc(N)nc(-c2c(Cl)c3c4c(nc(OC[C@@]56CCCN5C[C@H](F)C6)nc4c2F)N(Cc2cccnc2N)CCO3)c1C(F)(F)F` (single isomer, unassigned) [Example 42b], the IC50 stood at 7000 nM in assay [1] (PC9), 82 nM in assay [2], 55 nM in assay [3] and 3400 nM in assay [4] (SW480).

With `Cc1cc(N)nc(-c2c(Cl)c3c4c(nc(OC[C@@H]5CC[C@H]6COC(F)(F)CN56)nc4c2F)N([C@H](C)c2cccnc2N)CCO3)c1C(F)(F)F` (atropisomer, axis not shown; (aS)) [Example 91a, 6-((R)-4-((R)-1-(2-aminopyridin-3-yl)ethyl)-8-chloro-2-(((6S,8aS)-3,3-difluorohexahydro-1H-pyrrolo[2,1-c][1,4]oxazin-6-yl)methoxy)-10-fluoro-5,6-dihydro-4H-[1,4]oxazepino[5,6,7-de]quinazolin-9-yl)-4-methyl-5-(trifluoromethyl)pyridin-2-amine], the IC50 is 20000 nM in assay [1] (Homo sapiens, PC-9, PC9); 0.9 nM in assay [2]; 0.29 nM in assay [3]; 3.4 nM in assay [4] (Homo sapiens, SW480, SW480).

For the compound `Cc1cc(N)nc(-c2cc3ncnc4c3c(c2Cl)OCCN4[C@H](C)c2cncc(N)c2)c1C(F)(F)F` [Example 17, (R)-6-(4-(1-(5-aminopyridin-3-yl)ethyl)-8-chloro-5,6-dihydro-4H-[1,4]oxazepino[5,6,7-de]quinazolin-9-yl)-4-methyl-5-(trifluoromethyl)pyridin-2-amine], the half-inhibitory concentration (IC50) in assay [1] (Homo sapiens, PC-9, PC9) is 17000 nM; in assay [2], 52 nM; in assay [3] it was 6.1 nM; in assay [4] (Homo sapiens, SW480, SW480), 8700 nM.

As for `CNc1cnc(N)c([C@@H](C)N2CCOc3c(Cl)c(-c4nc(N)cc(C)c4C(F)(F)F)c(F)c4nc(OC[C@@]56CCCN5C[C@H](F)C6)nc2c34)c1` (atropisomer, axis not shown; (aS)) [Example 79, 3-((R)-1-((R)-9-(6-amino-4-methyl-3-(trifluoromethyl)pyridin-2-yl)-8-chloro-10-fluoro-2-(((2R,7aS)-2-fluorotetrahydro-1H-pyrrolizin-7a(5H)-yl)methoxy)-5,6-dihydro-4H-[1,4]oxazepino[5,6,7-de]quinazolin-4-yl)ethyl)-N^5-methylpyridine-2,5-diamine], the IC50 amounted to 3100 nM in assay [1] (Homo sapiens, PC-9, PC9); 0.34 nM in assay [2]; 0.22 nM in assay [3]; 2.4 nM in assay [4] (Homo sapiens, SW480, SW480).

With `Cc1cc(N)nc(-c2c(Cl)c3c4c(nc(OCC56COC(C5)C6)nc4c2F)N([C@H](C)c2cccnc2N)CCO3)c1C(F)(F)F` [Example 141, 6-((R)-2-((2-oxabicyclo[2.1.1]hexan-4-yl)methoxy)-4-((R)-1-(2-aminopyridin-3-yl)ethyl)-8-chloro-10-fluoro-5,6-dihydro-4H-[1,4]oxazepino[5,6,7-de]quinazolin-9-yl)-4-methyl-5-(trifluoromethyl)pyridin-2-amine], the IC50 in assay [1] (Homo sapiens, PC-9, PC9) amounted to 8100 nM; in assay [2], 0.77 nM; in assay [3], 0.24 nM; in assay [4] (Homo sapiens, SW480, SW480), 76 nM.

As to `Cc1cc(N)nc(-c2c(Cl)c3c4c(nc(OC[C@H]5C[C@@H](O)C5)nc4c2F)N([C@H](C)c2cccnc2N)CCO3)c1C(F)(F)F` (atropisomer, axis not shown) [Example 146, (1S,3s)-3-((((R)-9-(6-amino-4-methyl-3-(trifluoromethyl)pyridin-2-yl)-4-((R)-1-(2-aminopyridin-3-yl)ethyl)-8-chloro-10-fluoro-5,6-dihydro-4H-[1,4]oxazepino[5,6,7-de]quinazolin-2-yl)oxy)methyl)cyclobutan-1-ol], the IC50 in assay [1] (Homo sapiens, PC-9, PC9) is 19000 nM; in assay [2], 1.5 nM; in assay [3], 0.61 nM; in assay [4] (Homo sapiens, SW480, SW480) it was 510 nM.

Consider `Cc1cc(N)nc(-c2c(Cl)c3c4c(nc(OCCF)nc4c2F)N([C@H](C)c2cccnc2N)CCO3)c1C(F)(F)F` (atropisomer, axis not shown) [Example 151, 6-((R)-4-((R)-1-(2-aminopyridin-3-yl)ethyl)-8-chloro-10-fluoro-2-(2-fluoroethoxy)-5,6-dihydro-4H-[1,4]oxazepino[5,6,7-de]quinazolin-9-yl)-4-methyl-5-(trifluoromethyl)pyridin-2-amine], for which the IC50 came out at 14000 nM in assay [1] (Homo sapiens, PC-9, PC9); 5.4 nM in assay [2]; 1.1 nM in assay [3]; 700 nM in assay [4] (Homo sapiens, SW480, SW480).

For the compound `Cc1cc(N)nc(-c2c(Cl)c3c4c(nc(OC[C@@H]5CCN5CC(F)F)nc4c2F)N([C@H](C)c2cccnc2N)CCO3)c1C(F)(F)F` (atropisomer, axis not shown) [Example 109, 6-((R)-4-((R)-1-(2-aminopyridin-3-yl)ethyl)-8-chloro-2-(((S)-1-(2,2-difluoroethyl)azetidin-2-yl)methoxy)-10-fluoro-5,6-dihydro-4H-[1,4]oxazepino[5,6,7-de]quinazolin-9-yl)-4-methyl-5-(trifluoromethyl)pyridin-2-amine], the IC50 in assay [1] (Homo sapiens, PC-9, PC9) was 13000 nM; in assay [2], 0.222 nM; in assay [3] it was 0.18 nM; in assay [4] (Homo sapiens, SW480, SW480) it was 2.8 nM.

With `Cc1cc(N)nc(-c2c(Cl)c3c4c(nc(OCC56COC(CF)(C5)C6)nc4c2F)N([C@H](C)c2cccnc2N)CCO3)c1C(F)(F)F` [Example 154, 6-((R)-4-((R)-1-(2-aminopyridin-3-yl)ethyl)-8-chloro-10-fluoro-2-((1-(fluoromethyl)-2-oxabicyclo[2.1.1]hexan-4-yl)methoxy)-5,6-dihydro-4H-[1,4]oxazepino[5,6,7-de]quinazolin-9-yl)-4-methyl-5-(trifluoromethyl)pyridin-2-amine], the IC50 in assay [1] (Homo sapiens, PC-9, PC9) was found to be 14000 nM; in assay [2], 1.1 nM; in assay [3], 0.48 nM; in assay [4] (Homo sapiens, SW480, SW480), 91 nM.

Regarding `Cc1cc(N)nc(-c2c(Cl)c3c4c(nc(OC[C@@]56CCN5CC(F)(F)C6)nc4c2F)N([C@H](C)c2ccnnc2N)CCO3)c1C(F)(F)F` (atropisomer, axis not shown) [Example 77a, 4-((R)-1-((R)-9-(6-amino-4-methyl-3-(trifluoromethyl)pyridin-2-yl)-8-chloro-2-(((S)-3,3-difluoro-1-azabicyclo[3.2.0]heptan-5-yl)methoxy)-10-fluoro-5,6-dihydro-4H-[1,4]oxazepino[5,6,7-de]quinazolin-4-yl)ethyl)pyridazin-3-amine], the IC50 in assay [1] (Homo sapiens, PC-9, PC9) worked out at 20000 nM; in assay [2] it was 0.33 nM; in assay [3] it was 0.12 nM; in assay [4] (Homo sapiens, SW480, SW480), 21 nM.

For `Cc1cc(N)nc(-c2c(Cl)c3c4c(nc(OC[C@@H]5CCCN5C5COC5)nc4c2F)N([C@H](C)c2cccnc2N)CCO3)c1C(F)(F)F` (atropisomer, axis not shown) [Example 117, 6-((R)-4-((R)-1-(2-aminopyridin-3-yl)ethyl)-8-chloro-10-fluoro-2-(((S)-1-(oxetan-3-yl)pyrrolidin-2-yl)methoxy)-5,6-dihydro-4H-[1,4]oxazepino[5,6,7-de]quinazolin-9-yl)-4-methyl-5-(trifluoromethyl)pyridin-2-amine], the half-maximal inhibitory concentration (IC50) is 6300 nM in assay [1] (Homo sapiens, PC-9, PC9); 0.18 nM in assay [2]; 0.08 nM in assay [3]; 12 nM in assay [4] (Homo sapiens, SW480, SW480).

These data come from US20240383915A1, “OXAZEPINE COMPOUNDS AND USES THEREOF IN THE TREATMENT OF CANCER” (Genentech, Inc., priority 2021, published 2024).
